Data on two molecules can be found in PMC6117563, “A structurally derived model of subunit‐dependent NMDA receptor function” (The Journal of Physiology, 2018).

Each structure is given as a SMILES string.

One experiment concerns the target T1, GluN1/GluN2A receptors (Rattus norvegicus, UniProt Q00959).
T1 construct: expressed in transfected cells; host or cells: HEK 293 cells
Kind of experiment: Least squares fitting of kinetic model to macroscopic currents from excised outside‐out patches (1 mM or 3 μM glutamate for 1 s). To be noted: macroscopic fit. Type of experiment: cell-based. As for the experimental part: (§1) Cells were transfected using FuGENE 6 (Roche Diagnostics, Basel, Switzerland) with cDNA encoding green fluorescent protein (GFP), wild type GluN1‐1a (GenBank accession numbers U11418 and U08261; hereafter GluN1), and GluN2A (D13211) and GluN2B (U11419) at a ratio of 5:1:1 (GFP:GluN1:GluN2); total cDNA was 0.2 mg ml^−1. All rat NMDA receptor subunit cDNAs were provided by Drs Heinemann (Salk Institute) and Nakanishi (Kyoto University). After transfection, the HEK cells were incubated for 12–24 h (timed to optimize observation of patches with a single active channel) in media supplemented with D,L‐2‐amino‐5‐phosphonovalerate (DL‐AP‐5) and 7‐chlorokynurenic acid (both at 200 μM) prior to patch clamp recordings.

The subject of experiment [1] is GluN2AC1‐P552R/GluN2BC2‐P553R triheteromeric receptors. Kind of experiment: Whole cell current recordings, ifenprodil block of peak current in transfected HEK cells. Format: cell-based, rat. The settings on record: 3 μM ifenprodil; n = 9. As for the experimental part:
as §1
(§2) All GluN2 cDNAs used for whole cell current recordings encoded a fusion protein containing the GluN2A C‐terminal domain fused to coiled‐coil C1 and C2 peptide tags followed by an endoplasmic reticulum (ER) retention signal fused in frame to the C‐terminal. This allowed control of the stoichiometry of GluN2 in surface receptors, as previously described (Hansen et al. 2014). The vector containing GluN1 also independently expressed GFP and was provided by Dr Kasper Hansen (University of Montana). […]

Experiment [2] has as its target T2, GluN2AC1‐P552R/GluN2BC2 triheteromeric receptors (Rattus norvegicus, UniProt P35439+Q00959+Q00960, A876H/F846L/G856D/H848F/K857R/M851T/M860L/Q845K/V861L).
T2 construct: expressed in transfected cells; host or cells: HEK 293 cells
Described as above. To be noted: 3 μM ifenprodil; n = 9. Type of experiment: cell-based. As for the experimental part: as §1, §2

Experiment [3] concerns diheteromeric GluN1/GluN2BC2 receptors. Details: method as in Hatton & Paoletti, 2005; Hansen et al. 2014. To be noted: 3 μM ifenprodil; ref Hatton & Paoletti, 2005; Hansen et al. 2014; cited from earlier work.
Experiment [4] has as its target T3, GluN1/GluN2AC1/GluN2BC2 triheteromeric receptors (Rattus norvegicus, UniProt P35439+Q00959+Q00960, A876H/F846L/G856D/H848F/K857R/M851T/M860L/Q845K/V861L).
T3 construct: expressed in transfected cells; host or cells: HEK 293 cells
Also on record: method as in Hatton & Paoletti, 2005; Hansen et al. 2014. The settings on record: 3 μM ifenprodil; ref Hatton & Paoletti, 2005; Hansen et al. 2014; cited from earlier work.

For experiment [5], the target named is T3, GluN1/GluN2AC1/GluN2BC2 triheteromeric receptors. Kind of experiment: Whole cell current recordings, ifenprodil block of peak current response to glutamate plus glycine in transfected HEK cells. Type of experiment: cell-based. The settings on record: 3 μM ifenprodil. The method, then: as §1, §2
[6] abbreviates: model of Fig. A2 (opening only after all four pre‐gating steps).
Setting [7] is: model of Figs 5 and 6, saturating glycine (100 μM), pH 8.0.

T1 sequence (Q00959 23-1464, other chains not shown): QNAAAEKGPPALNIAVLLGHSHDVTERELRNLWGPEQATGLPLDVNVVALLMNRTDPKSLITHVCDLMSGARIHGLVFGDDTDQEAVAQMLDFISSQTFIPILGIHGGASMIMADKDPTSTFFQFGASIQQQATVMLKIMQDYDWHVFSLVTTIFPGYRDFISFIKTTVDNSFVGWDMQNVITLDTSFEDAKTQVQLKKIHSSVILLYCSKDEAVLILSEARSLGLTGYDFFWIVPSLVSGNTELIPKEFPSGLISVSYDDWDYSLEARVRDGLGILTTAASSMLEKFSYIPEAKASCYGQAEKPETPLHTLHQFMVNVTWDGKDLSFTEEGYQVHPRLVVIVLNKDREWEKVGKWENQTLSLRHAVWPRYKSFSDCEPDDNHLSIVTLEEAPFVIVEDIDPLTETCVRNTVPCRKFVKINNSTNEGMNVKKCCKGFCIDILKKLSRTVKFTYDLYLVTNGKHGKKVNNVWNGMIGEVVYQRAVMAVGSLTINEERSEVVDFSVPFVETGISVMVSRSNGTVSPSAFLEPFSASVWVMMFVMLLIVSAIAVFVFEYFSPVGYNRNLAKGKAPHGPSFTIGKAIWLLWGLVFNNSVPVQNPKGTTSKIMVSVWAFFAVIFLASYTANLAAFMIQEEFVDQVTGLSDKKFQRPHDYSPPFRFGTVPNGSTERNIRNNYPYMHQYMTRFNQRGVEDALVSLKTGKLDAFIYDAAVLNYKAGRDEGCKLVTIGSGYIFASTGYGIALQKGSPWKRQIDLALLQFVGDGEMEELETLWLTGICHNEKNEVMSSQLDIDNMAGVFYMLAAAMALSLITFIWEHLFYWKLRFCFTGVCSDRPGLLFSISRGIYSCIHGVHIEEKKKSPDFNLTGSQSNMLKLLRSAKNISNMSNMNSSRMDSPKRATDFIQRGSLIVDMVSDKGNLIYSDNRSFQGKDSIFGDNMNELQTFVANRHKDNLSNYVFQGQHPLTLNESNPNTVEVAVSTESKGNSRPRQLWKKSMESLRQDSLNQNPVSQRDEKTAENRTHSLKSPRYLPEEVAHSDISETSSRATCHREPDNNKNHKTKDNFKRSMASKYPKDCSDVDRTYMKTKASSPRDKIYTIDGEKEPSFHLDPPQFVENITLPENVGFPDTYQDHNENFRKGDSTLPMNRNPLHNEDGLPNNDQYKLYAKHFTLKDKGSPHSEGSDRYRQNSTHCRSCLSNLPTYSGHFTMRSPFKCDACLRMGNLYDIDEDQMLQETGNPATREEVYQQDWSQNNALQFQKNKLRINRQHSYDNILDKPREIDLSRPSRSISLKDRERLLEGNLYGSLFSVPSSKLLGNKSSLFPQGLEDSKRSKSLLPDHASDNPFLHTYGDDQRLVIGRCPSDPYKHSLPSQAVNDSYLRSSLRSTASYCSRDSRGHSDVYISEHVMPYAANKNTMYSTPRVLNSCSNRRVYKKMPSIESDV
T3 sequence (Q00960+Q00959 fused with the stated changes, other chains not shown): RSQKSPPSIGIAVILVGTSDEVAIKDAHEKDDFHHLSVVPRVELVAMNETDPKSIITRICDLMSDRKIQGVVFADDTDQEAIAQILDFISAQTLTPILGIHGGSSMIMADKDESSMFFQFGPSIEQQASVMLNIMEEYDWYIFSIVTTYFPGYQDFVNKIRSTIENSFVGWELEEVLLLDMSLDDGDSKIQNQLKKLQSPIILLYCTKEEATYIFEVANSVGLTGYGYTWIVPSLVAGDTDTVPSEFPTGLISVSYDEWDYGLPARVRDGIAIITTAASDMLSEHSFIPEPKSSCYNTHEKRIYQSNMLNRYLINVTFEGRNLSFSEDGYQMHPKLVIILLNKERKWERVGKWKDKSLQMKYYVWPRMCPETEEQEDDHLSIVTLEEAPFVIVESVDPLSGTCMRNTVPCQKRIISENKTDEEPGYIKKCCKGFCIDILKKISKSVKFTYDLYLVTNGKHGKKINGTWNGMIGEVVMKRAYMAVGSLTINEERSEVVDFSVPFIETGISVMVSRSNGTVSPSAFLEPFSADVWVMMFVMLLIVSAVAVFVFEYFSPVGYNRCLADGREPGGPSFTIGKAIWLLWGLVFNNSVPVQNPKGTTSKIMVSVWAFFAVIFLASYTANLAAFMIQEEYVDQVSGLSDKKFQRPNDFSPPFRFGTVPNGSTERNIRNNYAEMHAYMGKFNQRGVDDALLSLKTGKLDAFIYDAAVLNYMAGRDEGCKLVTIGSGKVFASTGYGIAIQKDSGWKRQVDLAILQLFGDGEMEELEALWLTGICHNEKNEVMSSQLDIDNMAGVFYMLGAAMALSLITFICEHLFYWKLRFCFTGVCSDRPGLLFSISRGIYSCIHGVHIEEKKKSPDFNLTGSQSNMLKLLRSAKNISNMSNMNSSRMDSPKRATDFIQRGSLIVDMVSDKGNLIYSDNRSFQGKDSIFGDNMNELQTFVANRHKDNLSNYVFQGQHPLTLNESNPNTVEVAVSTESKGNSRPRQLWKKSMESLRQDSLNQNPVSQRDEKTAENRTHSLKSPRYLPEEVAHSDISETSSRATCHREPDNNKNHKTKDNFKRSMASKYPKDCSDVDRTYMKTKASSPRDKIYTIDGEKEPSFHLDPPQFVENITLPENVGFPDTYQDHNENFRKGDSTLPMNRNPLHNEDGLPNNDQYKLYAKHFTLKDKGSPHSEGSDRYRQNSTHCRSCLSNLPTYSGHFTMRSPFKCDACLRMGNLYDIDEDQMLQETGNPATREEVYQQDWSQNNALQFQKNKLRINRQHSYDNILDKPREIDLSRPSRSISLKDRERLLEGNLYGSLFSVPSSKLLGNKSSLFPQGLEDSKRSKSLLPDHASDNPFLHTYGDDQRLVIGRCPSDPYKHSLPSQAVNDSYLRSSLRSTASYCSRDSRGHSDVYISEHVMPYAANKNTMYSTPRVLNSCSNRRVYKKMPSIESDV
T2 sequence (Q00960+Q00959 fused with the stated changes, other chains not shown): as above

In the case of `N[C@@H](CCC(=O)O)C(=O)O` [glutamate], on GluN1/GluN2A receptors (setting [6]), the “glutamate association rate k +A” value amounted to 1.3e+07 M⁻¹ s⁻¹ and the “glutamate dissociation rate k −A” value was 483 s⁻¹. Besides, at GluN1/GluN2A receptors (setting [7]), the “glutamate dissociation rate k −A” value came to 65 s⁻¹ and the “microscopic glutamate association rate k +A” value is 6.7e+06 M⁻¹ s⁻¹.

As to `CC(C(O)c1ccc(O)cc1)N1CCC(Cc2ccccc2)CC1` (stereo not drawn) [ifenprodil], the figures for the “reduction of peak current” value in experiment [1] and in experiment [2] were 43 ± 6.1% and 58 ± 5.5%, respectively. Also, the “expected reduction of peak current” value in experiment [3] is on record as ~90%. For the same molecule, in experiment [4], the “expected reduction of triheteromeric peak current” value is ~30%. The “block of the current amplitude” value in experiment [5] is 38%.
